Reference: patent US10941120B1, “6-aminouracil cassic acid ester with antibacterial activity and a method of preparing the same” (SHAANXI UNIVERSITY OF SCIENCE AND TECHNOLOGY, priority 2020, dated 2021)
In brackets after ≈: the same amount, converted by molar mass.

Tests used:
Format in all cases: cell-based
[1] = test system: multidrug-resistant Pseudomonas aeruginosa MDR-PA 18-202; assay: MIC by microbroth dilution, MDR-PA 18-202
Text: (§1) The minimal inhibitory concentration (MIC) of the compounds as determined by a microbroth dilution method with gentamicin, cefazolin sodium and ceftriaxone sodium as positive control.
(§2) The experimental strains included methicillin-resistant Gram-positive bacteria: methicillin-resistant Staphylococcus aureus MRSA 18-222, 18-575; multiple drug-resistant […] bacteria: vancomycin-resistant enterococci VRE 18-80, 18-94; multidrug-resistant Pseudomonas aeruginosa MDR-PA 18-1774, 18-202; carbapenem-resistant Acinetobacter baumannii CR-AB 18-183, 18-560. All the experimental strains were donated by Huashan Hospital affiliated to Fudan University (Institute of Antibiotics, Fudan University) and used after routine identification.
(§3) Preparation of Test Strains:
(§4) Preparation of MHB medium: 20.0 g MHB medium was added to 1 L distilled water, boiled until completely dissolved, packed in conical bottles and sterilized at 121° C. for 15 min.
(§5) The experimental strain was cultured to the logarithmic growth phase: under aseptic condition, the experimental strain was inoculated into 100 mL NMB medium and incubated in a constant temperature and humidity incubator at 37° C. for 20-22 hours.
(§6) Preparation of storage solution: weigh the sample to be tested, dissolve it with 1% DMSO solution, prepare a storage solution with a concentration of 2560 μg/mL, weigh a positive reference substance, dissolve it with aseptic distilled water, and configure a storage solution with a concentration of 2560 μg/mL.
(§7) Preparation of bacterial suspension: under aseptic condition, the experimental strains cultured to logarithmic growth phase were adjusted to 0.5 MCF turbidity standard with MHB medium and diluted according to 1:10, and the bacterial suspension with concentration of 10^6 CFU/mL was prepared for standby.
(§8) Dilution of storage solution and inoculation of experimental strain: under aseptic condition, the storage solution was diluted to 256 μg/mL solution. Take a sterile 96-well plate, add 200 μL MHB medium to the 12th well, and add 100 μL MHB medium to each well. Add 100 μL of positive control solution to the first well, mix well, and suck 100 μL from it and discard. Add 100 μL of the compound sample solution to the second well, mix well, and then pipette 100 μL to the third well. After mixing, pipette 100 μL to the fourth well, and dilute to the 11th well in this way. Finally, 100 μL was pipetted from the 11th well and discarded. The 12th hole was the growth control without drugs. So far, the concentration of the positive reference substance is 128 μg/mL, the concentrations of the sample solution are 128, 64, 16, 8, 4, 2, 1, 0.5, 0.25 μg/mL respectively. Then, 100 μL of the prepared bacterial suspension is added to each well, so that the final concentration of the bacterial liquid in each well is 5×10^5 CFU/mL.
(§9) Incubation: Cover the 96-well plate inoculated with the experimental strains, and incubate in a constant temperature and humidity box at 37° C. for 20-22 hours.

[2] = test system: multidrug-resistant Pseudomonas aeruginosa MDR-PA 18-174; assay: MIC by microbroth dilution, MDR-PA 18-174; settings: for Minimum bacteriostatic concentration: MDR-PA 18-174
Text: as §1, §2, §3, §4, §5, §6, §7, §8, §9
In FIGS. 1-6, the twelve wells represent twelve groups, from left to right, positive, 128 μg/mL, 64 μg/mL, 32 μg/mL, 16 μg/mL, 8 μg/mL, 4 μg/mL, 2 μg/mL, 1 μg/mL, 0.25 μg/mL, 0.0625 μg/mL, Negative.

[3] = test system: vancomycin-resistant enterococci VRE 18-80; assay: MIC by microbroth dilution, VRE 18-80
Text: as §1, §2, §3, §4, §5, §6, §7, §8, §9

[4] = test system: methicillin-resistant Staphylococcus aureus MRSA 18-575; assay: MIC by microbroth dilution, MRSA 18-575
Text: as §1, §2, §3, §4, §5, §6, §7, §8, §9

[5] = test system: vancomycin-resistant enterococci VRE 18-94; assay: MIC by microbroth dilution, VRE 18-94; settings: for Minimum bacteriostatic concentration: VRE 18-94
Text: as §1, §2, §3, §4, §5, §6, §7, §8, §9

[6] = test system: carbapenem-resistant Acinetobacter baumannii CR-AB 18-183; assay: MIC by microbroth dilution, CR-AB 18-183
Text: as §1, §2, §3, §4, §5, §6, §7, §8, §9

[7] = test system: carbapenem-resistant Acinetobacter baumannii CR-AB 18-560; assay: MIC by microbroth dilution, CR-AB 18-560
Text: as §1, §2, §3, §4, §5, §6, §7, §8, §9

[8] = test system: methicillin-resistant Staphylococcus aureus MRSA 18-222; assay: MIC by microbroth dilution, MRSA 18-222
Text: as §1, §2, §3, §4, §5, §6, §7, §8, §9

drug-resistant bacteria = assay: Antibacterial activity test, whole panel of drug-resistant strains; settings: all tested strains, summary in words
Text: as §1, §2, §3, §4
The experimental strain was cultured to the logarithmic growth phase: under aseptic condition, the experimental strain was inoculated into 100 mL NMB medium and incubated in a constant temperature and humidity incubator at 37° C. for 20-22 hours. […]

Work on O=C(Nc1cc(=O)[nH]c(=O)[nH]1)c1cc(O)c2c(c1)C(=O)c1cccc(O)c1C2=O [6-Aminouracil cassic acid ester, N-(2,6-dioxo-1,2,3,6-tetrahydropyrimidin-4-yl)-4,5-dihydroxy-9,10-dioxo-9,10-dihydroanthracene-2-carboxamide] yielded a Minimum bacteriostatic concentration [1] greater than 128 µg/mL, a Minimum bacteriostatic concentration [2] of 128 µg/mL and an MIC ([2]; multi-drug resistant Pseudomonas aeruginosa MDR-PA, strain not given) of 128 µg/mL (≈ 325 µM). The Minimum bacteriostatic concentration [3] was greater than 128 µg/mL, the Minimum bacteriostatic concentration [4] was greater than 128 µg/mL and the Minimum bacteriostatic concentration [5] was 64 µg/mL. It also gave an MIC ([5]; vancomycin resistant Enterococcus VRE, strain not given) of 64 µg/mL (≈ 163 µM), a Minimum bacteriostatic concentration [6] greater than 128 µg/mL and a Minimum bacteriostatic concentration [7] greater than 128 µg/mL. The Minimum bacteriostatic concentration [8] was greater than 128 µg/mL.
With Cc1nnc(SCC2=C(C(=O)O)N3C(=O)[C@@H](NC(=O)Cn4cnnn4)[C@H]3SC2)s1 [Cefazolin sodium, cefazolin sodium] the Minimum bacteriostatic concentration [1] was 128 µg/mL, the Minimum bacteriostatic concentration [2] was 8 µg/mL and the Minimum bacteriostatic concentration [3] was 32 µg/mL. The Minimum bacteriostatic concentration [4] was greater than 128 µg/mL, the Minimum bacteriostatic concentration [5] was greater than 128 µg/mL and the Minimum bacteriostatic concentration [6] was greater than 128 µg/mL. The Minimum bacteriostatic concentration [7] was greater than 128 µg/mL and the Minimum bacteriostatic concentration [8] was greater than 128 µg/mL.
CO/N=C(\C(=O)N[C@@H]1C(=O)N2C(C(=O)O)=C(CSc3nc(=O)c(=O)[nH]n3C)CS[C@H]12)c1csc(N)n1 [Ceftriaxone sodium, ceftriaxone sodium] gave a Minimum bacteriostatic concentration [1] of 16 µg/mL, a Minimum bacteriostatic concentration [2] of 128 µg/mL and a Minimum bacteriostatic concentration [3] of 8 µg/mL. The Minimum bacteriostatic concentration [4] was greater than 128 µg/mL, the Minimum bacteriostatic concentration [5] was greater than 128 µg/mL and the Minimum bacteriostatic concentration [6] was greater than 128 µg/mL. For the same molecule, the Minimum bacteriostatic concentration [7] was greater than 128 µg/mL and the Minimum bacteriostatic concentration [8] was greater than 128 µg/mL.
In the case of Nc1cc(=O)[nH]c(=O)[nH]1 [6-Aminouracil], the Minimum bacteriostatic concentration [1] is reported as greater than 128 µg/mL, the “inhibitory effect on drug-resistant bacteria” value (drug-resistant bacteria) is reported as “no inhibitory effect” and the Minimum bacteriostatic concentration [2] is reported as greater than 128 µg/mL. It also gave a Minimum bacteriostatic concentration [3] greater than 128 µg/mL, a Minimum bacteriostatic concentration [4] greater than 128 µg/mL and a Minimum bacteriostatic concentration [5] greater than 128 µg/mL. For the same molecule, the Minimum bacteriostatic concentration [6] was greater than 128 µg/mL, the Minimum bacteriostatic concentration [7] was greater than 128 µg/mL and the Minimum bacteriostatic concentration [8] was greater than 128 µg/mL.
With O=C(O)c1cc(O)c2c(c1)C(=O)c1cccc(O)c1C2=O [Cassic acid] the Minimum bacteriostatic concentration [1] was greater than 128 µg/mL, the “inhibitory effect on drug-resistant bacteria” value (drug-resistant bacteria) was “no inhibitory effect” and the Minimum bacteriostatic concentration [2] was greater than 128 µg/mL. It also gave a Minimum bacteriostatic concentration [3] greater than 128 µg/mL, a Minimum bacteriostatic concentration [4] greater than 128 µg/mL and a Minimum bacteriostatic concentration [5] greater than 128 µg/mL. For the same molecule, the Minimum bacteriostatic concentration [6] was greater than 128 µg/mL, the Minimum bacteriostatic concentration [7] was greater than 128 µg/mL and the Minimum bacteriostatic concentration [8] was greater than 128 µg/mL.
With gentamicin the Minimum bacteriostatic concentration [1] was 0.0625 µg/mL, the Minimum bacteriostatic concentration [2] was 0.0625 µg/mL and the Minimum bacteriostatic concentration [3] was 0.0625 µg/mL. It also gave a Minimum bacteriostatic concentration [4] of 2 µg/mL, a Minimum bacteriostatic concentration [5] greater than 128 µg/mL and a Minimum bacteriostatic concentration [6] greater than 128 µg/mL. The Minimum bacteriostatic concentration [7] was greater than 128 µg/mL and the Minimum bacteriostatic concentration [8] was 128 µg/mL.
